This is an account of results in publication PMC8024735, “Low Z‐4OHtam concentrations are associated with adverse clinical outcome among early stage premenopausal breast cancer patients treated with adjuvant tamoxifen” (Molecular Oncology, 2020).

“And” between values parts separate entries of the source, which are not always exact repeats. Equal values may be shown once.

A short description of data set [1]: Quantification of tamoxifen and seven metabolites in bone marrow plasma by LC-MS/MS. As to conditions: for Mean concentration / Median concentration: bone marrow plasma, N = 406, ~ 8 months from tamoxifen initiation.
Description: During the isolation of mononuclear cells, BM samples were diluted 1 : 2 in PBS and centrifuged 10 min at 1000 g. After centrifugation, 3 × 1 mL samples of BM plasma was removed and stored at −40 °C and later transferred to −80 °C.
Tamoxifen and seven metabolites (Table 2) were quantified in human BM plasma samples collected ~ 8 months from tamoxifen initiation using our previously described method for serum [17]. In brief, protein precipitation (20 μL) of BM plasma was performed in acetonitrile containing deuterated internal standards. The supernatant (80 μL) was evaporated to dryness using nitrogen and subsequently reconstituted in 500 μL water : methanol (20 : 80, v:v). Subsequently, the samples were chromatographically separated on a Waters Acquity UPLC system (Milford, MA, USA) using a Waters BEH Phenyl column (100 mm × 2.1 mm, 1.7 μm particle size). The column was developed by a gradient elution of 0.01% aqueous solution of formic acid and methanol as weak and strong mobile phases, respectively. The compounds were subjected to atmospheric pressure photoionization and detected in positive ion mode using a Xevo TQ‐S tandem mass spectrometer (Waters, Taunton, MA, USA). All measured concentrations were multiplied by 3 to account for the dilution factor caused by adding 2 volumes of PBS during the isolation of mononuclear cells.
For a further data set, the system named is ER. As to conditions: fold higher than tamoxifen; cited from earlier work.
The next data set concerns ER‐positive BC. Details: method as in PMID 15894097. To be noted: patients using tamoxifen; cited from earlier work.
Details of data set [2]: method as in printed. To be noted: has been reported, ref not given; cited from earlier work.
Data set [3] relates to estrogen receptor‐positive breast cancer (BC) patients. Nature of the data set: Breast cancer-specific survival (BCSS) according to active metabolite thresholds, Kaplan-Meier and Cox regression. The format is in vivo, human. The text has this: Patients included in this retrospective analysis were selected from subjects on a prospective trial investigating the value of Secondary Adjuvant (rescue) Treatment with docetaxel (Taxotere) [SATT (Secondary Adjuvant Treatment with Taxotere) study] for BC patients with disseminated tumor cells in their bone marrow (BM). […] Inclusion criteria were completion of primary surgery, completion of six cycles of anthracycline (AC)‐containing chemotherapy, and node‐positive or pT1c‐T4G2‐3 node‐negative BC with no earlier or other concomitant carcinoma.
Thus, they reflect patients treated with endocrine treatment outside studies, according to national guidelines.
Selection of patients younger than 45 years ensured that the patients received tamoxifen as a monotherapy for 5 years according to guidelines at the time of inclusion. […] Patients with plasma tamoxifen concentrations of < 40 nM were considered to be nonadherent to tamoxifen and excluded from both subgroups. As molecular subtyping was not available, the relevance of luminal subgroup status on active metabolite thresholds was investigated by creation of a Luminal B‐like subgroup based on tumor pathological surrogate markers available. […] All other patients were grouped as Luminal A [29, 30].
Survival analyses included Kaplan–Meier and Cox regression analyses in which breast cancer‐specific survival (BCSS), defined as time from inclusion to death by BC, was used as the main outcome variable. The log‐rank test was applied to test for statistical difference in survival between groups. […] First, we fitted univariable Cox models. Next, in multivariable Cox regression models we included both clinically relevant variables and variables with a P‐value ≤ 0.2 from the univariable analysis. […] Distribution of metabolite concentrations and clinical variables was calculated and presented as means, medians, and frequencies. Interpatient variability in tamoxifen concentrations was calculated as coefficients of variation. Ratios between Z‐endoxifen and Z‐4OHtam were calculated by dividing the two metabolite concentrations and reported as means with range. All statistical analyses were conducted using IBM ® SPSS ® Statistics version 25 (SPSS, Inc., Chicago, IL, USA). Two‐tailed P‐values < 0.05 were considered statistically significant.

A further data set deals with breast cancer patients. Details: method as in PMID 29183390. To be noted: thresholds Z-4OHtam 3.26 nM, Z-endoxifen 9 nM, learning set; cited from earlier work.
[4] abbreviates: all analyzed patients (n = 406).

In the case of `CC/C(=C(\c1ccccc1)c1ccc(OCCN)cc1)c1ccccc1` [NNDDtam, N,N‐di‐desmethyl tamoxifen], the Mean concentration in data set [1] is reported as 94.7 nM.

As to `CC/C(=C(\c1ccc(O)cc1)c1ccc(OCCN(C)C)cc1)c1ccccc1` [Z‐4OHtam, Z‐4‐hydroxy‐tamoxifen], the “Affinity to the ER compared with tamoxifen” value with ER was 100 × and ~ 100 ×.

For `CC/C(=C(\c1ccccc1)c1ccc(OCCN(C)C)cc1)c1ccccc1` [Tam, tamoxifen], in data set [1], the Mean concentration is 365.9 nM and the Median concentration was determined as 341.2 nM. Moreover, the “Patients experiencing a relapse within 10 years” value in the data set with ER‐positive BC is on record as ~ 25%.

For the compound `CC/C(=C(\c1ccccc1)c1ccc(OCCN(C)C)cc1)c1ccc(O)cc1` [Z‐4'‐OHtam], in data set [1], the Mean concentration turned out to be 6.9 nM and the Median concentration was 6.6 nM.

As to `CC/C(=C(\c1ccccc1)c1ccc(OCC[N+](C)(C)[O-])cc1)c1ccccc1` [TamNoX], in data set [1], the Mean concentration is listed as 49.9 nM and the Median concentration is on record as 43.1 nM.

Regarding `CC/C(=C(\c1ccccc1)c1ccc(OCCNC)cc1)c1ccccc1` [NDtam], in data set [1], the Mean concentration was 694.9 nM and the Median concentration is listed as 655.8 nM.

In the case of `CC/C(=C(\c1ccc(O)cc1)c1ccc(OCCNC)cc1)c1ccccc1` [Z‐endoxifen, 4‐hydroxy‐N‐desmethyl tamoxifen], the “Abundance in serum compared with Z-4OHtam” value in data set [2] was “up to 10 times”. Besides, in the data set on ER, the “Affinity to the ER compared with tamoxifen” value is 100 × and ~ 100 ×. For the same compound, in data set [1] ('tamoxifen-only' subgroup), the “Median ratio between Z-endoxifen and Z-4OHtam concentrations” value is 5.6; the “Range of ratio between Z-endoxifen and Z-4OHtam concentrations” value was 1.9–14.9. Moreover, in data set [1] (setting [4]), the “Median ratio between Z-endoxifen and Z-4OHtam concentrations” value amounted to 5.7; the “Range of ratio between Z-endoxifen and Z-4OHtam concentrations” value is listed as 1.2–14.9. In data set [1], the Mean concentration is listed as 28.7 nM and the Median concentration was determined as 26.6 nM. In addition, the “Association of ordinal categories (low, moderate, high concentration) with BCSS” value in data set [3] ('tamoxifen-only' subgroup) is reported as “No significant associations”. The “Association of threshold with BCSS” value in data set [3] ('tamoxifen-only' subgroup, uni-/multivariable) was “No uni‐/multivariable associations”. In data set [3] (Z-endoxifen 9.00 nM threshold, all patients n = 406), the “HR for BCSS” value is on record as 0.63 (0.15-2.60). Also, the “HR (95% CI) for BCSS, univariable” value in data set [3] (Z-endoxifen ≤ 9 nM vs > 9 nM, 'tamoxifen-only' subgroup n = 191) is listed as 0.98 (0.23–4.15). In addition, in data set [3] (all 406 patients, thresholds 9 nM Z-endoxifen, 3.26 nM Z-4OHtam), the “Association of concentrations below thresholds with BCSS” value is reported as “not associated with BCSS”. The “Predictive value of thresholds in Luminal A / Luminal B-like subgroups” value in data set [3] (post hoc analysis, thresholds 3.26 and 9 nM) is reported as “not predictive of survival in either subgroup”. Moreover, in the data set with breast cancer patients, the “Hazard ratio (HR) of threshold in prior report” value was 3.73.

On to `CCC(=C(c1ccccc1)c1ccc(OCCNC)cc1)c1ccc(O)cc1` [Z‐4'‐endoxifen], for which, in data set [1], the Mean concentration worked out at 20.8 nM and the Median concentration amounted to 19.6 nM.
